Source: patent US5164370A, “Peptide analogues of insulin-like growth factor 1 (IGF-1) or factor 2 (IGF-2)” (Gropep Pty. Ltd., priority 1987, dated 1992)
Where no end group is shown, it is not given here.

How the values were obtained:
[1] = test system: L6 myoblasts; assay: incorporation of 3H-labelled leucine into total cell protein of L6 myoblasts (protein synthesis bioassay); type: cell-based; settings: for Concentration (percent of that required to give a half-response with hIGF-1): hIGF-1 half-response 12 ng/ml = 100, lower = more potent
Text: Bioassays of purified synthetic peptides have been compared with pure human/bovine/porcine IGF-1. The assays involve the incorporation of 3H-labelled leucine into the total cell protein of L6 myoblasts as described by Francis et al. (Biochem. J. 233:207-213, 1986).

[2] = test system: purified binding protein; assay: competition for binding of labelled human/bovine/porcine IGF-1 to purified binding protein; settings: competition with labelled human/bovine/porcine IGF-1
Text: This apparent discrepancy is caused by the myoblasts producing a binding protein in addition to the receptor. This binding protein selectively binds those IGF-1 peptides that have a glutamic acid residue at position 3 from the N-terminal, thus preventing the peptide binding to the cell receptor. This interpretation is established by the following results [determined by the method of Martin and Baxter, J. Biol, Chem. 261: 8754-8760, (1986)] with purified binding proteins (see Table 2).

Potency for binding to the protein where hIGF-1 = 100% [2] | Substance | Concentration (percent of that required to give a half-response with hIGF-1) [1] | concentration required to give a half-response ([1]; 3H-leucine incorporation)
100% | Gly--Pro--Glu--Thr--Leu--Cys--: pure human/bovine/porcine insulin-like growth factor-1, full 70-residue sequence (b3) (GPETLC; not fully specified (C-terminus); ends and bridges not checked; also: N-terminal part of IGF-1, rest of chain not shown) [reference compound] | 100% | 12 ng/mL
< 0.1% | Gly--Pro--Gly--Arg--Leu--Cys--: IGF-1 analogue: glutamic acid 3 substituted with glycine and threonine 4 with arginine (GPGRLC; not fully specified (C-terminus); printed as Gly—Pro—Gly—Arg—Leu—Cys—; ends and bridges not checked; also: N-terminal part of IGF-1 analogue, rest of chain not shown) | 4% | –
0.5% | Gly--Pro--Gly--Thr--Leu--Cys--: IGF-1 analogue: glutamic acid at position 3 substituted with glycine (GPGTLC; not fully specified (C-terminus); printed as Gly—Pro—Gly—Thr—Leu—Cys—; ends and bridges not checked; also: N-terminal part of IGF-1 analogue, rest of chain not shown) | 12% | –
0.1% | Gly--Pro--Lys--Thr--Leu--Cys--: IGF-1 analogue: glutamic acid at position 3 substituted with lysine (GPKTLC; not fully specified (C-terminus); printed as Gly—Pro—Lys—Thr—Leu—Cys—; ends and bridges not checked; also: N-terminal part of IGF-1 analogue, rest of chain not shown) | 11% | –
1.0% | Gly--Thr--Leu--Cys--: IGF-1 analogue: Gly, Pro removed and glutamic acid substituted with glycine (GTLC; not fully specified (C-terminus); printed as Gly—Thr—Leu—Cys—; ends and bridges not checked; also: N-terminal part of IGF-1 analogue, rest of chain not shown) | 16% | –

Continued, substance first:

Substance | Potency for binding to the protein where hIGF-1 = 100% [2] | Concentration (percent of that required to give a half-response with hIGF-1) [1] | concentration required to give a half-response ([1]; 3H-leucine incorporation)
Gly--Pro--Arg--Thr--Leu--Cys--: IGF-1 analogue: glutamic acid at position 3 substituted with arginine (GPRTLC; not fully specified (C-terminus); printed as Gly—Pro—Arg—Thr—Leu—Cys—; ends and bridges not checked; also: N-terminal part of IGF-1 analogue, rest of chain not shown) | < 0.1% | 5% | –
Gly--Pro--Gln--Thr--Leu--Cys--: IGF-1 analogue: glutamic acid at position 3 substituted with glutamine (GPQTLC; not fully specified (C-terminus); printed as Gly—Pro—Gln—Thr—Leu—Cys—; ends and bridges not checked; also: N-terminal part of IGF-1 analogue, rest of chain not shown) | 1.0% | 18% | –
Gly--Pro--Gly--Gly--Leu--Cys--: IGF-1 analogue: glutamic acid 3 substituted with glycine and threonine 4 with glycine (GPGGLC; not fully specified (C-terminus); printed as Gly—Pro—Gly—Gly—Leu—Cys—; ends and bridges not checked; also: N-terminal part of IGF-1 analogue, rest of chain not shown) | 0.1% | 14% | –
Gly--Pro--Leu--Thr--Leu--Cys--: IGF-1 analogue: glutamic acid at position 3 substituted with leucine (GPLTLC; not fully specified (C-terminus); printed as Gly—Pro—Leu—Thr—Leu—Cys—; ends and bridges not checked; also: N-terminal part of IGF-1 analogue, rest of chain not shown) | 0.5% | 18% | –
